Literature values in patent US9415078B2 (priority 2011, dated 2016).
Several values for one entry are separate records, joined by “and”; a condition that tells them apart may be missing. Identical values can stand only once. Like-named read-outs stand apart in the source and are kept apart here.

Tested on: non squamous and squamous carcinoma of lung
Details: pemetrexed-based therapy, two comparisons

## Nc1nc2[nH]cc(CCc3ccc(C(=O)N[C@@H](CCC(=O)O)C(=O)O)cc3)c2c(=O)[nH]1 [pemetrexed]
Non squamous patients
  HR for survival versus the comparators: 0.78 and 0.84
Squamous patients
  HR for survival versus the comparators: 1.56 and 1.23
